According to US10112937B2, “P2X7 modulators and methods of use” (Janssen Pharmaceutica NV, priority 2013, dated 2018):

Biological target: human P2X7 (Homo sapiens (Human), UniProt Q99572)
Assay: P2X7 antagonism in human PBMCs (IL-1β release after LPS + Bz-ATP, ELISA)
Assay type: cell-based
Conditions: test compound 10 μM

Chain of human P2X7 (Q99572 whole entry): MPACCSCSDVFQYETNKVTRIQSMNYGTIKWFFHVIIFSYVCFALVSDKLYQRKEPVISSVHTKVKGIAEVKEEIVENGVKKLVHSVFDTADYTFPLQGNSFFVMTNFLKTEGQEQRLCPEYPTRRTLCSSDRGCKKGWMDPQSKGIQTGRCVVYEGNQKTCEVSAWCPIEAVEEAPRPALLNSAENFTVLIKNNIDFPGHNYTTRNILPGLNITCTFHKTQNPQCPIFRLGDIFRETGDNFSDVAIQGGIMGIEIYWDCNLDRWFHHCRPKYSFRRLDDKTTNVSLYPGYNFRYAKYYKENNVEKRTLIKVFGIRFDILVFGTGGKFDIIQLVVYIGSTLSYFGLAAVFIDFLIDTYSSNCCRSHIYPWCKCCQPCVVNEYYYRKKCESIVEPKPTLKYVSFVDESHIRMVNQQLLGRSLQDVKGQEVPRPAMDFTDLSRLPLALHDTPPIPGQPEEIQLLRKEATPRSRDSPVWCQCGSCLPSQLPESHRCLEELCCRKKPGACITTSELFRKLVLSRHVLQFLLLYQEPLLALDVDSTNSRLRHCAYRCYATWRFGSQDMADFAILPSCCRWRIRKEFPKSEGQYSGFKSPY

Structure (SMILES)	PBMC 10 μM (% control) (human PBMCs)	PBMC 10 μM (% control) (LPS 30 ng/ml + 0.5 mM Bz-ATP)
Cc1c(C(=O)N2CCc3c(nnn3-c3ncccn3)[C@H]2C)cccc1C(F)(F)F (single isomer, unassigned) [Example 188, (R*)-(4-methyl-1-(pyrimidin-2-yl)-6,7-dihydro-1H-[1,2,3]triazolo[4,5-c]pyridin-5(4H)-yl)(2-methyl-3-(trifluoromethyl)phenyl)methanone]	−0.7	−0.7
C[C@@H]1c2nnn(-c3ncc(F)cn3)c2CCN1C(=O)c1cccc(C(F)(F)F)c1F (single isomer, unassigned) [Example 190, (R*)-(2-fluoro-3-(trifluoromethyl)phenyl)(1-(5-fluoropyrimidin-2-yl)-4-methyl-6,7-dihydro-1H-[1,2,3]triazolo[4,5-c]pyridin-5(4H)-yl)methanone]	7.1	
C[C@H]1c2ncn(-c3ccccn3)c2CCN1C(=O)c1cccc(Cl)c1Cl (single isomer, unassigned) [Example 191, (S*)-(2,3-Dichlorophenyl)(4-methyl-1-(pyridin-2-yl)-6,7-dihydro-1H-imidazo[4,5-c]pyridin-5(4H)-yl)methanone]	5.2	
C[C@@H]1c2ncn(-c3ccccn3)c2CCN1C(=O)c1cccc(Cl)c1Cl (single isomer, unassigned) [Example 192, (R*)-(2,3-Dichlorophenyl)(4-methyl-1-(pyridin-2-yl)-6,7-dihydro-1H-imidazo[4,5-c]pyridin-5(4H)-yl)methanone]	−6.3	−6.3
C[C@@H]1c2ncn(-c3ncc(F)cn3)c2CCN1C(=O)c1cccc(C(F)(F)F)c1Cl (single isomer, unassigned) [Example 193, (R*)-(2-Chloro-3-(trifluoromethyl)phenyl)(1-(5-fluoropyrimidin-2-yl)-4-methyl-6,7-dihydro-1H-imidazo[4,5-c]pyridin-5(4H)-yl)methanone]	1.4	1.4
C[C@@H]1Cc2c(nnn2-c2cc(F)ccn2)CN1C(=O)c1cccc(C(F)(F)F)c1Cl (single isomer, unassigned) [Example 198, (6R*)-5-{[2-Chloro-3-(trifluoromethyl)phenyl]carbonyl}-1-(4-fluoropyridin-2-yl)-6-methyl-4,5,6,7-tetrahydro-1H-[1,2,3]triazolo[4,5-c]pyridine]	1.3	
C[C@H]1Cc2c(nnn2-c2cc(F)ccn2)CN1C(=O)c1cccc(C(F)(F)F)c1Cl (single isomer, unassigned) [Example 199, (6S*)-5-{[2-Chloro-3-(trifluoromethyl)phenyl]carbonyl}-1-(4-fluoropyridin-2-yl)-6-methyl-4,5,6,7-tetrahydro-1H-[1,2,3]triazolo[4,5-c]pyridine]	0.0	
C[C@@H]1Cc2c(nnn2-c2ncc(F)cn2)CN1C(=O)c1ccc(F)c(Cl)c1Cl (single isomer, unassigned) [Example 214, (6R*)-5-[(2,3-Dichloro-4-fluorophenyl)carbonyl]-1-(5-fluoropyrimidin-2-yl)-6-methyl-4,5,6,7-tetrahydro-1H-[1,2,3]triazolo[4,5-c]pyridine]	8.2	
C[C@@H]1c2n[nH]c(-c3ncc(F)cn3)c2CCN1C(=O)c1cccc(C(F)(F)F)c1Cl (single isomer, unassigned) [Example 223, (R*)-(2-chloro-3-(trifluoromethyl)phenyl)(3-(5-fluoropyrimidin-2-yl)-7-methyl-4,5-dihydro-2H-pyrazolo[3,4-c]pyridin-6(7H)-yl)methanone]	1.8	
Cc1ccc(-n2nnc3c2CCN(C(=O)c2cccc(C(F)(F)F)c2Cl)[C@@H]3C)nc1 (single isomer, unassigned) [Example 255, (R*)-(2-chloro-3-(trifluoromethyl)phenyl)(4-methyl-1-(5-methylpyridin-2-yl)-6,7-dihydro-1H-[1,2,3]triazolo[4,5-c]pyridin-5(4H)-yl)methanone]	−5.5	
Cc1nc(-n2nnc3c2CCN(C(=O)c2cccc(C(F)(F)F)c2Cl)[C@@H]3C)ncc1F (single isomer, unassigned) [Example 305, (R*)-(2-chloro-3-(trifluoromethyl)phenyl)(1-(5-fluoro-4-methylpyrimidin-2-yl)-4-methyl-6,7-dihydro-1H-[1,2,3]triazolo[4,5-c]pyridin-5(4H)-yl)methanone]	0.9	
CCOc1cccnc1-n1nnc2c1CCN(C(=O)c1cccc(C(F)(F)F)c1Cl)[C@@H]2C (single isomer, unassigned) [Example 316, (R*)-(2-chloro-3-(trifluoromethyl)phenyl)(1-(3-ethoxypyridin-2-yl)-4-methyl-6,7-dihydro-1H-[1,2,3]triazolo[4,5-c]pyridin-5(4H)-yl)methanone]	−9.6	

More lines, now with the values ahead:

PBMC 10 μM (% control) (human PBMCs)	PBMC 10 μM (% control) (LPS 30 ng/ml + 0.5 mM Bz-ATP)	Structure (SMILES)
−3.1		C[C@H]1Cc2c(nnn2-c2cc(F)ccn2)CN1C(=O)c1cccc(Cl)c1Cl (single isomer, unassigned) [Example 196, (6S*)-5-[(2,3-Dichlorophenyl)carbonyl]-1-(4-fluoropyridin-2-yl)-6-methyl-4,5,6,7-tetrahydro-1H-[1,2,3]triazolo[4,5-c]pyridine]
2.1		Cc1c(C(=O)N2CCc3c(nnn3-c3ncccn3)[C@@H]2C)cccc1C(F)(F)F (single isomer, unassigned) [Example 197, (S*)-(4-methyl-1-(pyrimidin-2-yl)-6,7-dihydro-1H-[1,2,3]triazolo[4,5-c]pyridin-5(4H)-yl)(2-methyl-3-(trifluoromethyl)phenyl)methanone]
45.0		Cc1c(C(=O)N2Cc3nnn(-c4ncc(F)cn4)c3C[C@H]2C)cccc1C(F)(F)F (single isomer, unassigned) [Example 207, (6R*)-1-(5-Fluoropyrimidin-2-yl)-6-methyl-5-{[2-methyl-3-(trifluoromethyl)phenyl]carbonyl}-4,5,6,7-tetrahydro-1H-[1,2,3]triazolo[4,5-c]pyridine]
2.7		C[C@H]1Cc2c(nnn2-c2ncc(F)cn2)CN1C(=O)c1ccc(F)c(Cl)c1Cl (single isomer, unassigned) [Example 215, (6S*)-5-[(2,3-Dichloro-4-fluorophenyl)carbonyl]-1-(5-fluoropyrimidin-2-yl)-6-methyl-4,5,6,7-tetrahydro-1H-[1,2,3]triazolo[4,5-c]pyridine]
6.1		C[C@H]1Cc2c(nnn2-c2ncc(F)cn2)CN1C(=O)c1ccc(Cl)c(F)c1Cl (single isomer, unassigned) [Example 218, (6S*)-5-[(2,4-Dichloro-3-fluorophenyl)carbonyl]-1-(5-fluoropyrimidin-2-yl)-6-methyl-4,5,6,7-tetrahydro-1H-[1,2,3]triazolo[4,5-c]pyridine]
58.0		Cc1cccc(-n2nnc3c2CCN(C(=O)c2cccc(C(F)(F)F)c2Cl)[C@@H]3C)n1 (single isomer, unassigned) [Example 226, (R*)-(2-chloro-3-(trifluoromethyl)phenyl)(4-methyl-1-(6-methylpyridin-2-yl)-6,7-dihydro-1H-[1,2,3]triazolo[4,5-c]pyridin-5(4H)-yl)methanone]
−0.4		Cc1cccc(-n2nnc3c2CCN(C(=O)c2cccc(C(F)(F)F)c2Cl)[C@H]3C)n1 (single isomer, unassigned) [Example 227, (S*)-(2-chloro-3-(trifluoromethyl)phenyl)(4-methyl-1-(6-methylpyridin-2-yl)-6,7-dihydro-1H-[1,2,3]triazolo[4,5-c]pyridin-5(4H)-yl)methanone]
7.5		C[C@H]1Cc2c(nnn2-c2ncc(F)cn2)CN1C(=O)c1cc(C(F)(F)F)ccc1F (single isomer, unassigned) [Example 232, (S*)-(2-fluoro-5-(trifluoromethyl)phenyl)(1-(5-fluoropyrimidin-2-yl)-6-methyl-6,7-dihydro-1H-[1,2,3]triazolo[4,5-c]pyridin-5(4H)-yl)methanone]
5.1		COCCn1ccc(-n2nnc3c2CCN(C(=O)c2cccc(C(F)(F)F)c2Cl)[C@H]3C)n1 (single isomer, unassigned) [Example 249, (S*)-(2-Chloro-3-(trifluoromethyl)phenyl)(1-(1-(2-methoxyethyl)-1H-pyrazol-3-yl)-4-methyl-6,7-dihydro-1H-[1,2,3]triazolo[4,5-c]pyridin-5(4H)-yl)methanone]
47.9		C[C@H]1c2nnn(-c3ncccn3)c2CCN1C(=O)c1cccc(C(F)(F)F)c1F (single isomer, unassigned) [Example 270, (S*)-(2-fluoro-3-(trifluoromethyl)phenyl)(4-methyl-1-(pyrimidin-2-yl)-6,7-dihydro-1H-[1,2,3]triazolo[4,5-c]pyridin-5(4H)-yl)methanone]
−7.1		Cc1cccnc1-n1nnc2c1CCN(C(=O)c1cccc(C(F)(F)F)c1Cl)[C@@H]2C (single isomer, unassigned) [Example 291, (R*)-(2-chloro-3-(trifluoromethyl)phenyl)(4-methyl-1-(3-methylpyridin-2-yl)-6,7-dihydro-1H-[1,2,3]triazolo[4,5-c]pyridin-5(4H)-yl)methanone]
−8.1		CCc1ccnc(-n2nnc3c2CCN(C(=O)c2cccc(C(F)(F)F)c2Cl)[C@@H]3C)n1 (single isomer, unassigned) [Example 294, (R*)-(2-chloro-3-(trifluoromethyl)phenyl)(1-(4-ethylpyrimidin-2-yl)-4-methyl-6,7-dihydro-1H-[1,2,3]triazolo[4,5-c]pyridin-5(4H)-yl)methanone]
4.8		CCOc1cccnc1-n1nnc2c1CCN(C(=O)c1cccc(C(F)(F)F)c1Cl)[C@H]2C (single isomer, unassigned) [Example 317, (S*)-(2-chloro-3-(trifluoromethyl)phenyl)(1-(3-ethoxypyridin-2-yl)-4-methyl-6,7-dihydro-1H-[1,2,3]triazolo[4,5-c]pyridin-5(4H)-yl)methanone]
